{
  "source": "patent US20240189307A1",
  "about": "“METHODS OF STABILIZING THE NEURONAL PROTEOME AGAINST COLLAPSE AND PROTECTING VASCULAR CELLS” (ALBERT EINSTEIN COLLEGE OF MEDICINE, priority 2021, published 2024)",
  "test_system": "PS19 mice (tau P301S)",
  "assay": "PS19 mouse model of Frontotemporal dementia-related proteotoxicity, oral daily CA",
  "assay_type": "in vivo",
  "protocol": "FIG. 11. Chemical activation of CMA improves behavior and neuropathology in a mouse model of Frontotemporal dementia-related proteotoxicity. (A) Schematic of regimen of CMA activator (CA) administration to mice overexpressing human P301S tau (PS19). (B, C) Spontaneous locomotion in an open field of 9-month-old CTR or PS19 mice administered vehicle (Veh) or CA. Representative tracks (B) and total distance traveled in 10 min (C). (D-H) Immunostaining for MC1 tau in the hippocampus, the amygdala and the piriform cortex of 9 months old CTR, PS19 +/− CA. Representative images of the indicated brain regions (D). Scale bars: hippocampus: 500 μm, amygdala and piriform cortex: 200 μm. Quantification of the area stained in the hippocampus (E), (F-J) Immunoblots for tau and phosphorylated tau. Representative immunoblots and densitometric quantifications for the indicated proteins: S422-phosphorylated tau (G), S202/T205-phosphorylated tau (AT8) (H), MC1 tau (I) and total tau (J). (K-M) Immunostaining for Iba1 (K) and quantification of average cell size in the hippocampus (L) and the piriform cortex (M). Scale bars: hippocampus: 500 μm and piriform cortex: 200 μm. Data are mean+s.e.m. Individual values are shown for n=9-10 mice per genotype and treatment in C, E, G-M). Comparisons were made using one-way ANOVA followed by Tukey's post-hoc analysis (C, E, G, I-M) or Kruskal-Wallis test followed by Dunn's post hoc test (H). *p<0.05, **p<0.005, ***p<0.0005.\nMale wild-type mice (C57BL/6J) or transgenic for CaMKIIα-Cre (B6.Cg-Tg(Camk2α-cre)T29-1Stl/J, Jackson Laboratory), LAMP-2A^flox/flox (Schneider et al., 2014), Tau^P301L (line pR5), Tg (APP^Swe; PS2^N141I; Tau^P301L), PS19 (Tau^P301S) (Yoshiyama et al., 2007) and Atg7^f/f were used in the study. Conditional LAMP-2A deletion was generated by breeding LAMP-2A^flox/flox with the transgenic Cre mice of interest. Knockout for L2A in the whole body (L2A^−/−) was generated by insemination of a wild-type female with spermatozoids with L2A floxed to excise this gene in all tissues in the offspring. Male littermate wild type and only L2A^f/f were separately analyzed for each test and because no differences were detected among them, they were grouped in the results as “control” (CTR) for the experimental group (^CamKII[…] CreL2A^f/f or L2A^−/−). All mice were genotyped at weaning and genotyping was re-confirmed postmortem to correct for any possible misplacement during husbandry. Mice were all in the C57BL/6J background and maintained under specific pathogen-free conditions in ventilated cages with no more than 5 mice per cage. Only males were used in this study due to the complexity in generating the quadruple transgenic mouse model with L2A knock out in homozygosis (for which we took advantage of the location of the Lamp2 gene in the X chromosome). Age of the animals was 4-6 months in most experiments except when otherwise indicated in text, figures and figure legends. Animals were maintained at 19-23° C. in 12 h light/dark cycle. Mice were fed ad libitum. CA77.1 was administered as sucralose jelly pellets for a daily dose of 30 mg/Kg body weight whereas the vehicle treated group received the same sucralose jelly pellet without drug. Briefly, for preparation of the jelly pellets the final amount of the compound per day (adjusted per animal weight) was dissolved in ethanol and then mixed with a warm gelatin solution (100 mg/ml, 10 mg/ml sucralose in water), that was poured into 24 well flat bottom plates for solidification. To avoid animal stress and competition for the pellets, animals were separated with a grid spacer in the same cage that they were housed, eating of the pellet was monitored and the spacer was removed as soon as all mice consumed the pellet (average time 2 min). Sentinel animals were included in each study to determine brain exposure at the end of treatment. These animals received the same batch of jelly pellets in parallel to the experimental group. […]",
  "data": [
    {"smiles": "CC(=O)Nc1ccc(-c2cnc3cc(Cl)ccc3n2)cc1", "note": "[CA77.1]", "values": [
      {"measurement": "spontaneous locomotion in open field (locomotor hyperactivity)", "setting": "30 mg/kg body weight oral daily for 6 months from 3 months of age", "value": "normalized the previously described locomotor hyperactivity of PS19 mice to control levels"},
      {"measurement": "immunoblot levels of aberrant, phosphorylated, oligomeric and insoluble tau", "setting": "30 mg/kg oral daily, 6 months", "value": "lower levels of conformationally aberrant, S422 and AT8 phosphorylated, oligomeric and insoluble forms of tau"},
      {"measurement": "total levels of human tau", "setting": "30 mg/kg oral daily, 6 months", "value": "did not reduce total levels of human tau"},
      {"measurement": "number of microglial cells and large Iba1-positive dystrophic cells", "setting": "hippocampus and piriform cortex, 30 mg/kg oral daily, 6 months", "value": "reduced upon CA treatment"},
      {"measurement": "MC1 pathogenic tau conformations, levels and number of neurons", "setting": "hippocampus, amygdala and piriform cortex, 30 mg/kg oral daily, 6 months", "value": "reduced the levels and number of neurons containing pathogenic tau conformations"},
      {"measurement": "mice with tau Type III pathology (S202/T205, AT8 staining)", "setting": "hippocampus, 30 mg/kg oral daily, 6 months, vehicle 60%", "value": 10, "unit": "%"}
    ]}
  ]
}
